Active and inactive are the calls of the source. The rule behind the calls is not given here.
Assays:
Capan-2 = assay: Cytotoxicity against human Capan2 cells assessed as reduction in cell viability measured after 48 hrs by MTS assay; format: cell-based; settings: Capan-2, 48 h
MIA PaCa-2 = assay: Cytotoxicity against human MIAPaCa2 cells assessed as reduction in cell viability measured after 48 hrs by MTS assay; format: cell-based; settings: MIA PaCa-2, 48 h
[1] = Cytotoxicity against human HPDE6c7 cells assessed as reduction in cell viability measured after 48 hrs by MTS assay; format: cell-based; settings: HPDE6c7, 48 h
[2] = Cytotoxicity against HAF cells assessed as reduction in cell viability measured after 48 hrs by MTS assay; format: cell-based; settings: Homo sapiens
PANC-1 [3] = assay: Cytotoxicity against human PANC1 cells assessed as reduction in cell viability at 0.1 to 1 uM measured after 18 hrs by MTS assay; format: cell-based; settings: panc-1, 18 h
Myoferlin [4] = biological target: T1, Myoferlin (Homo sapiens, UniProt Q9NZM1); assay: Reversible binding affinity to recombinant human GST-tagged MYOF C2 domain (3445 to 3912 residues) expressed in Escherichia coli BL21 (DE3) by surface plasmon resonance analysis
Myoferlin [5] = biological target: T1, Myoferlin; assay: Binding affinity to recombinant human GST-tagged MYOF C2 domain (3445 to 3912 residues) expressed in Escherichia coli BL21 (DE3) at 145 uM by STD-NMR analysis
PANC-1 [6] = assay: Antimigratory activity against MYOF-knockout human PANC1 cells measured after 18 hrs in presence of mitomycin C using crystal violet staining by inverted microscopy-based transwell assay; format: functional, cell-based
Cytochrome P450 2B6 = biological target: T2, Cytochrome P450 2B6 (Homo sapiens, UniProt P20813); assay: Inhibition of CYP2B6 in human liver microsomes using bupropion as substrate preincubated for 5 mins followed by NADPH-generating system addition and measured after 20 mins by LC-MS/MS analysis
T2 sequence (P20813 whole entry): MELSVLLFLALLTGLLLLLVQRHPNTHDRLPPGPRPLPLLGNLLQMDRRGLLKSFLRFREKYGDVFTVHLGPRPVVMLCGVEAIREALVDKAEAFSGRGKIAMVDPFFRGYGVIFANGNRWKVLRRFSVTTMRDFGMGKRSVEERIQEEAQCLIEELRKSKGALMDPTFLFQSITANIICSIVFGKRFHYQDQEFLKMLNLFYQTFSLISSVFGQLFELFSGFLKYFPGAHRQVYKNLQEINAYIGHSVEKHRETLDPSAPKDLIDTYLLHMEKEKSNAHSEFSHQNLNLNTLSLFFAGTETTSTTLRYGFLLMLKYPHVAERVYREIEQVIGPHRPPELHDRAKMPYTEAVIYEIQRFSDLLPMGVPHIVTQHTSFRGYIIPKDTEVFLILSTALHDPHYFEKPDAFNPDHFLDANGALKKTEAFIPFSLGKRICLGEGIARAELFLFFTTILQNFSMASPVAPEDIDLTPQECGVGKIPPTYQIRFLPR

Cytochrome P450 2E1 = Cytochrome P450 2E1 (Homo sapiens, UniProt P05181); assay: Inhibition of CYP2E1 in human liver microsomes using chlorzoxazone as substrate preincubated for 5 mins followed by NADPH-generating system addition and measured after 20 mins by LC-MS/MS analysis
Cytochrome P450 3A4 = Cytochrome P450 3A4 (Homo sapiens, UniProt P08684); assay: Inhibition of CYP3A4 in human liver microsomes using midazolam as substrate preincubated for 5 mins followed by NADPH-generating system addition and measured after 20 mins by LC-MS/MS analysis
PANC-1 [7] = assay: Antimetastatic activity against human PANC1 cells harboring luciferase reporter gene xenografted in Balb/c nude mouse assessed as mouse survival at 50 mg/kg/day, ip (reference value: 25%); format: functional; settings: PANC-1, ip
[8] = Toxicity in Balb/c nude mouse xenografted with PANC1 cells assessed as pathological changes in heart at 25 to 50 mg/kg/day, ip by H and E staining-based microscopic analysis; format: organism-based; settings: in vivo
[9] = Toxicity in Balb/c nude mouse xenografted with PANC1 cells assessed as pathological changes in spleen at 25 to 50 mg/kg/day, ip by H and E staining-based microscopic analysis; format: organism-based; settings: in vivo
Myoferlin [10] = biological target: T1, Myoferlin; assay: Inhibition of MYOF in human PANC1 cells assessed as reduction in phospho-VEGFR2 level by Western blot analysis; format: cell-based
Myoferlin [11] = biological target: T1, Myoferlin; assay: Inhibition of MYOF in human PANC1 cells assessed as increase in EGF-stimulated EGFR phosphorylation by Western blot analysis; format: cell-based
PANC-1 [12] = assay: Effect on MMP1 secretion in MYOF-knockout human PANC1 cells up to 400 nM by Western blot analysis; format: functional, cell-based
PANC-1 [13] = assay: Effect on VEGFR2 expression in MYOF-knockout human PANC1 cells up to 400 nM by Western blot analysis; format: functional, cell-based
PANC-1 [14] = assay: Effect on Snail1 expression in human PANC1 cells up to 400 nM by Western blot analysis; format: functional, cell-based

T1 sequence (Q9NZM1 whole entry, the tested form may be a part): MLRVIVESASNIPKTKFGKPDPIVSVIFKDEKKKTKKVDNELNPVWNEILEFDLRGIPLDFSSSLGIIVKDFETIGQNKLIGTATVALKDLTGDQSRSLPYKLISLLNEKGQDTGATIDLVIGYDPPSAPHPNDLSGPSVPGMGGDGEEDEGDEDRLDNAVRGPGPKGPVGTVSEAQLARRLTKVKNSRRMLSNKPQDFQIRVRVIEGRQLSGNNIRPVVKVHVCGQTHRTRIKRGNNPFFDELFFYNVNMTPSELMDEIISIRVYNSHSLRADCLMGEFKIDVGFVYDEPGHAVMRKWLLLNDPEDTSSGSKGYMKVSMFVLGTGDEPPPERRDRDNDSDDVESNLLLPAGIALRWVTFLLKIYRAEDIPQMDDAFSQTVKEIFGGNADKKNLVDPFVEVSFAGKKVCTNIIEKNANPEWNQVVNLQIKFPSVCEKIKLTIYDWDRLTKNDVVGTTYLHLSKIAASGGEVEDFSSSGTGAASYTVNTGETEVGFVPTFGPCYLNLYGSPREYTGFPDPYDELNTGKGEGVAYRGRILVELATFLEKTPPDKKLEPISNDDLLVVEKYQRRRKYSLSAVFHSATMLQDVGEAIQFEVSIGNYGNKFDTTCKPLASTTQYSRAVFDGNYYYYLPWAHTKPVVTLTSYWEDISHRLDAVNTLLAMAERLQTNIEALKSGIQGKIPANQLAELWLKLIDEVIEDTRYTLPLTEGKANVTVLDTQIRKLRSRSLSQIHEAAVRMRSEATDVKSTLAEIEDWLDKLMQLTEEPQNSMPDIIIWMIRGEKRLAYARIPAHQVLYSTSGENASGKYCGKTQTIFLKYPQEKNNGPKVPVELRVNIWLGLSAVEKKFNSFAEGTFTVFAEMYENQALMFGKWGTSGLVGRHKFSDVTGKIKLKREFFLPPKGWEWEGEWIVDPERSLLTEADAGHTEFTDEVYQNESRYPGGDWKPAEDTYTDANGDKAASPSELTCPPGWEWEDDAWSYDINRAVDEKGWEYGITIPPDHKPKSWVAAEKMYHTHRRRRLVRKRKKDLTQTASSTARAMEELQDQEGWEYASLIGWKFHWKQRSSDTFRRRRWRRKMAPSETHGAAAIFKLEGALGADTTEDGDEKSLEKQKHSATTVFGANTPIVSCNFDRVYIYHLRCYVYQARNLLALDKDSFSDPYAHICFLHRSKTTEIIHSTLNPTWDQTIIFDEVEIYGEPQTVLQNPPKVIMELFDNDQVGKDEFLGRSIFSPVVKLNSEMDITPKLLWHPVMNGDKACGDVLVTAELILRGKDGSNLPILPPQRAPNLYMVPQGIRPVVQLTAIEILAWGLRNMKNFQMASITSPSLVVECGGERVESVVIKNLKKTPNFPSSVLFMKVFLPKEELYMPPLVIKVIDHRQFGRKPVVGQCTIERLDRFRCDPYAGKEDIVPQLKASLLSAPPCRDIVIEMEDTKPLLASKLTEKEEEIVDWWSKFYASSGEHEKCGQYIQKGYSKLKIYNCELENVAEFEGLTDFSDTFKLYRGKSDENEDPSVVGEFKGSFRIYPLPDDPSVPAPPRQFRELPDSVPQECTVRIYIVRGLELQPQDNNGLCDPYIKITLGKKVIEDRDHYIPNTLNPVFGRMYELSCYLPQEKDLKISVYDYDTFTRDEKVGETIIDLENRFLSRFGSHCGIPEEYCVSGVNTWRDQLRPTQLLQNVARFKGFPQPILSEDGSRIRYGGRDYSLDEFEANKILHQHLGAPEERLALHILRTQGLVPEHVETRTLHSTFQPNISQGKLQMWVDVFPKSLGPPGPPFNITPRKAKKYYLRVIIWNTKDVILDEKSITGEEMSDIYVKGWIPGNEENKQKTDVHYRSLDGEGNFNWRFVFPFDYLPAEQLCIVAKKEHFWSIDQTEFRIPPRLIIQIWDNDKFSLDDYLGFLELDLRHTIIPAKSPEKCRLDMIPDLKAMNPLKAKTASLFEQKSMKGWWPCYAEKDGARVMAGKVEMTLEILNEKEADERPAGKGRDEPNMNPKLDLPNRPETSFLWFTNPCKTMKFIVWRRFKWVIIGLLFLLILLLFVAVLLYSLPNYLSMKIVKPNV
Cytochrome P450 2E1, sequence (P05181 whole entry): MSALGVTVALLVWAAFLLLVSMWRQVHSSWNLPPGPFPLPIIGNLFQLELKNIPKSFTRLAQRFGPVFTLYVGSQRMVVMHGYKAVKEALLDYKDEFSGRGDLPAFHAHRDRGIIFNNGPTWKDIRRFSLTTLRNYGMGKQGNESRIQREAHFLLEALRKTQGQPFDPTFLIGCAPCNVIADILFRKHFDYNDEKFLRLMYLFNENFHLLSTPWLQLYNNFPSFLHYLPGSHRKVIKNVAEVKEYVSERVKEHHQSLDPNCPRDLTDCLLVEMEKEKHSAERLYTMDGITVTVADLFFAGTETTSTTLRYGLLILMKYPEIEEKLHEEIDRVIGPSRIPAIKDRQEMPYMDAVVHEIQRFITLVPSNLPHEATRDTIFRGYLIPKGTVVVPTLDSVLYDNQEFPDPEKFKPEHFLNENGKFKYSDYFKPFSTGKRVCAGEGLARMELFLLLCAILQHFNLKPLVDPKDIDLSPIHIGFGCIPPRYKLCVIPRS
Cytochrome P450 3A4, sequence (P08684 whole entry): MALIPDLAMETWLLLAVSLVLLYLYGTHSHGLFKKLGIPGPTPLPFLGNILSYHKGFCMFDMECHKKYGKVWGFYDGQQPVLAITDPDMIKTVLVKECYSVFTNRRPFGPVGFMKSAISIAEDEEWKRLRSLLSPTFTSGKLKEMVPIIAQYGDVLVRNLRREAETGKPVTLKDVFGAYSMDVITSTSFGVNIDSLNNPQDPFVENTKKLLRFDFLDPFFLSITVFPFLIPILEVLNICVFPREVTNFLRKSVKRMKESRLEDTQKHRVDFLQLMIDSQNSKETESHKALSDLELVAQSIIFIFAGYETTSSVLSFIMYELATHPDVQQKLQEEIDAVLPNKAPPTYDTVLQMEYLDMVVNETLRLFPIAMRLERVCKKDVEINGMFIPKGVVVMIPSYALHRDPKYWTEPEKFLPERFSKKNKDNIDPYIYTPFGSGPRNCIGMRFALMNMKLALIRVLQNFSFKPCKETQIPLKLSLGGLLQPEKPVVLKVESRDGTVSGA

## CCc1nc(-c2ncc(OC)cn2)n(-c2cccc(C(=O)NCCCCc3ccccc3)c2)n1
Capan-2
  IC50: 2.85 µM
MIA PaCa-2
  IC50: 1.54 µM
[1]
  IC50: 14.6 µM
[2]
  IC50: 8.54 µM
PANC-1 [3]
  Activity: Non-Toxic
Myoferlin [4]
  Activity: Dose-dependent effect
  Kd: 0.094 µM
Myoferlin [5]
  Activity: Active
PANC-1 [6]
  Activity: inactive
Cytochrome P450 2B6
  IC50: > 50 µM
Cytochrome P450 2E1
  IC50: > 50 µM
Cytochrome P450 3A4
  IC50: > 50 µM
PANC-1 [7]
  survival at 50 mg/kg/day: 87.5%
[8]
  Activity: Non-Toxic
[9]
  Activity: Non-Toxic
Myoferlin [10]
  inhibition: Dose-dependent effect
Myoferlin [11]
  inhibition: Dose-dependent effect
PANC-1 [12]
  Activity: inactive
PANC-1 [13]
  Activity: inactive
PANC-1 [14]
  Activity: inactive
